{"source": "patent US20210244686A1", "about": "“Novel Systems And Methods For The Therapeutic Use of Cannabinoids or Cannabinoid Analogs to Increase The Lipid Order of Cholesterol Containing Cell Membranes” (The Regents of the University of Colorado a body corporate, priority 2018, published 2021)", "test_system": "SK-N-BE(2) cells", "experiment": "Subcellular fractionation and LC-MS of CBD distribution", "type": "cell-based, human", "conditions": "24 hrs", "procedure": "In a metabolomics survey of SK-N-BE(2) cells exposed to CBD, the present inventors were able to determine that CBD is concentrated in insoluble components […]. As a result, the inventors designed and executed a subcellular fractionation method to isolate nuclear membrane, plasma membrane, and ER membrane fractions.\nExtraction of cholesterol, precursors, free fatty acids, cholesteryl esters, and phospho lipids were performed in the following manner. SK-N-BE(2) cells in 10 cm dishes were washed with 10 mL PBS twice and then cells were scraped and pelleted at 400 rcf for 2 minutes. […]\nAnalytes were resolved over an ACQUITY HSS T3 column (2.1×150 mm, 1.8 μm particle size (Waters, Mass., USA) using an aqueous phase (A) of 25% acetonitrile and 5 mM ammonium acetate and a mobile phase (B) of 90% isopropanol, 10% acetonitrile and 5 mM ammonium acetate. The column was equilibrated at 30% B, and upon injection of […] of extract, samples were eluted from the column using the solvent gradient: 0-9 min 30-100% B and 0.325 mL/min; hold at 100% B for 3 min at 0.3 mL/min, and then decrease to 30% over 0.5 min at 0.4 ml/min, followed by a re-equilibration hold at 30% B for 2.5 minutes at 0.4 ml/min. […] Samples were analyzed in randomized order with a technical mixture injected incrementally to qualify instrument performance. […]", "data": [{"smiles": "C=C(C)[C@@H]1CCC(C)=C[C@H]1c1c(O)cc(CCCCC)cc1O", "note": "[CBD, cannabidiol]", "values": [{"measurement": "CBD incorporated into ER and nuclear membranes", "result": "detectable amount"}]}]}
